# Measured values published in publication PMC4740303, “The Sigma-2 Receptor and Progesterone Receptor Membrane Component 1 are Different Binding Sites Derived From Independent Genes” (EBioMedicine, 2015).
# Numbering of substitutions follows the chain as printed. Entries after “also recorded” stand apart in the source; their conditions may differ.
# How the values were obtained:
# PGRMC1 [1] = details: ref Peluso et al., 2008; cited from earlier work
# S2R [2] = target: T1, S2R (Rattus norvegicus, UniProt Q5U3Y7); assay: [^125I]-IAF photolabeling of the S2R in PC12 membranes; assay type: binding
# T1 construct: [^125I]-IAF photolabeling of the S2R in PC12 membranes; endogenous in cells; host or cells: PC12 cells
# T1 sequence (Q5U3Y7 1-176): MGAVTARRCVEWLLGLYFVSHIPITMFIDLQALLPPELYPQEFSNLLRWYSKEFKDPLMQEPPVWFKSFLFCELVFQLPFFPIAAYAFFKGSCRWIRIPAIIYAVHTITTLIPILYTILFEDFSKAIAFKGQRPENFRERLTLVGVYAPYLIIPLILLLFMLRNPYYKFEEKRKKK
# Method: (§1) Cell membrane preparation was performed following our established method ([Guo et al., 2012]). Briefly, cell pellets were suspended in PBS and sonicated on ice using the following settings: 5 sets (10 strokes/set) at duty cycle = 50, output control = 5. Cell homogenates were centrifuged at 8000 × g for 10 min, and the resulting supernatant was collected and subjected to ultracentrifugation at 100,000 × g for 1 h. The supernatant was discarded and the pellet was gently washed twice with ice-cold PBS. The pellet was then resuspended in PBS and sonicated (3 sets, 10 strokes/set at duty cycle = 50, output control = 5) to homogeneity. Protein concentration was then measured using the standard Bradford reagent (Sigma-Aldrich, St. Louis, MO).
# (§2) The synthesis of [^125I]-IAF and photolabeling was performed according to our published method ([Pal et al., 2007]). […] [^125I]-IAF was then added (final 1 nM) and incubated for another 40 min with gentle shaking in the dark. Photoactivation of [^125I]-IAF was performed by exposing the samples to a high-pressure AH-6 mercury lamp for 5 s and Laemmli buffer was immediately added to each sample. The samples were then resolved on a 16 × 18 cm SDS gel with 6–18% acrylamide gradient. The gel was dried and exposed to a phosphor screen for 24–48 h and autoradiograms were recorded using a Phosphoimager (Molecular Dynamics).
# S2R [3] = target: T2, S2R (Mus musculus, UniProt Q8VD00); design: method as in Matsumoto et al., 2014; details: competitive [^3H]-DTG binding assays; ref Matsumoto et al., 2014; cited from earlier work
# T2 construct: Membranes (28 μg total proteins per reaction) prepared from NSC34 cells of controls, PGRMC1 knockout, or PGRMC1-3 × HA overexpression; endogenous in cells; host or cells: NSC34 cells (control, PGRMC1 knockout clones 38 and 207, PGRMC1-3xHA overexpressing)
# T2 sequence (Q8VD00 1-176): T1 sequence (Q5U3Y7 1-176) with V4L, T5A, M26L, L33V, F71L, V105A, I118L, I127V, N136S, F169Y
# S1R [4] = target: T3, S1R (Mus musculus, UniProt O55242); design: method as in Matsumoto et al., 2014; details: competitive [^3H]-DTG binding assays; ref Matsumoto et al., 2014; cited from earlier work
# T3 construct: membranes prepared from control and PGRMC1 knockout (clones 38 and 207) NSC34 cells; endogenous in cells; host or cells: NSC34 cells (control and PGRMC1 knockout clones 38 and 207)
# S2R [5] = target: T2, S2R; details: cited from earlier work
# S2R [6] = target: T2, S2R; assay: Saturation binding of [^3H]-DTG in NSC34 cell membranes, S1R masked with (+)-pentazocine; details: mean ± SEM
# Method: as §1
# S1R [7] = target: T3, S1R; details: cited from earlier work; for affinity for the S1R: ref Hellewell et al., 1994
# PGRMC1 [8] = test system: PGRMC1; design: method as in Xu et al., 2011; details: ref Xu et al., 2011, cited from earlier work
# S1R [9] = target: T3, S1R; assay: [^125I]-IAF photolabeling of the S1R in NSC34 cell membranes; assay type: binding; details: NSC34 membranes (control and PGRMC1 knockout)
# Method: as §1, §2
# S2R [10] = target: T2, S2R; design: method as in Pal et al., 2007; details: earlier work of the group; ref Pal et al., 2007; cited from earlier work
# S1R [11] = target: T4, S1R (Rattus norvegicus, UniProt Q9R0C9); assay: [^125I]-IAF photolabeling of the S1R in PC12 membranes; assay type: binding; details: 20 μM
# T4 construct: endogenous in cells; host or cells: PC12 cells
# Method: as §1, §2
# PGRMC1 [12] = target: PGRMC1 (Rattus norvegicus, UniProt P70580); assay: biochemical
# Method: Liver tissues were homogenized (10 ml buffer/g wet tissue) by 4 bursts of 10 s each using a Brinkman polytron (American Laboratory Trading Inc., East Lyme, CT) on setting 6 in ice-cold sodium phosphate buffer (10 mM pH 7.4) containing 0.32 M sucrose and a cocktail of protease inhibitors (20 μg/ml leupeptin, 5 μg/ml soybean trypsin inhibitor, 100 μM phenylmethylsulfonyl fluoride (PMSF), 100 μM benzamidine and 1 mM EDTA). The membrane suspension after homogenization was centrifuged for 10 min at 17,000 × g and the supernatant was subjected to ultracentrifugation at 100,000 × g for 1 h to collect membrane fractions. The pellet from the second centrifugation was resuspended to a protein concentration of 10 mg/ml in the foregoing buffer, snapped frozen and stored at − 80 °C.
# Inhibition of [^3H]-progesterone binding to PGRMC1 was performed according to [Peluso et al. (2008)]. […] After incubation at 37 °C for 60 min, the reaction was terminated by rapid filtration through glass fiber filters, using a Brandel cell harvester and processed as described above. […] Nonspecific binding was monitored in the presence of nonradioactive progesterone at 10 μM and subtracted from total [^3H]-progesterone binding.
# S2R [13] = target: T2, S2R; assay: [^125I]-IAF photolabeling of the S2R in NSC34 cell membranes; assay type: binding; details: NSC34 membranes (control and PGRMC1 knockout); 20 μM
# Method: as §1, §2
# S2R (sigma-2 receptor) = target: T5, S2R (sigma-2 receptor) (Rattus norvegicus, UniProt Q5U3Y7); assay: Inhibition of [^3H]-DTG binding to the S2R in rat liver membranes
# T5 construct: Experiments were performed with rat liver membranes; tissue Pel Freez Biologicals; host or cells: rat liver
# T5 sequence (Q5U3Y7 1-176): T1 sequence (Q5U3Y7 1-176)
# Method: Rat liver membranes, a rich source of sigma-2 receptor, were prepared as described in our previous reports ([Pal et al., 2007], [Guo et al., 2012]) from frozen tissues (Pel Freez Biologicals, Rogers, AR). Liver tissues were homogenized (10 ml buffer/g wet tissue) by 4 bursts of 10 s each using a Brinkman polytron (American Laboratory Trading Inc., East Lyme, CT) on setting 6 in ice-cold sodium phosphate buffer (10 mM pH 7.4) containing 0.32 M sucrose and a cocktail of protease inhibitors (20 μg/ml leupeptin, 5 μg/ml soybean trypsin inhibitor, 100 μM phenylmethylsulfonyl fluoride (PMSF), 100 μM benzamidine and 1 mM EDTA). The membrane suspension after homogenization was centrifuged for 10 min at 17,000 × g and the supernatant was subjected to ultracentrifugation at 100,000 × g for 1 h to collect membrane fractions. The pellet from the second centrifugation was resuspended to a protein concentration of 10 mg/ml in the foregoing buffer, snapped frozen and stored at − 80 °C.
# T3 sequence (O55242 whole entry): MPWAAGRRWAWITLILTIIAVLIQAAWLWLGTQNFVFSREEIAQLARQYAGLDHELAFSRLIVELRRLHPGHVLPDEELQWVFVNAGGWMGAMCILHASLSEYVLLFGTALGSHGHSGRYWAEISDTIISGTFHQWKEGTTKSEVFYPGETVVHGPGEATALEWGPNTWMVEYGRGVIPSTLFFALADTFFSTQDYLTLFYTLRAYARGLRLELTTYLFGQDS
# PGRMC1 (Rattus norvegicus, UniProt P70580), sequence (P70580 whole entry): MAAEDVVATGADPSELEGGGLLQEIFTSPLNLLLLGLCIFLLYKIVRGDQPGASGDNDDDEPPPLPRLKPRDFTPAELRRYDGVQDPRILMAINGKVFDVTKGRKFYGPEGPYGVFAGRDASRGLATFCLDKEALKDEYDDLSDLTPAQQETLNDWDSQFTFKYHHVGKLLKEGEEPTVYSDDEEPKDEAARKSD
# T4 sequence (Q9R0C9 whole entry): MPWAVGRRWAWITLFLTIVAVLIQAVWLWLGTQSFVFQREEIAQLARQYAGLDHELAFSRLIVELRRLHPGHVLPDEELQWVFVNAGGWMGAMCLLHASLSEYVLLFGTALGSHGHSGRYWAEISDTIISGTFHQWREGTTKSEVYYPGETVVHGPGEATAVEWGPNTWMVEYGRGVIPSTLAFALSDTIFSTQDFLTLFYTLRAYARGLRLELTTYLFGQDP
smiles,measurement,setting,value
CC(=O)[C@H]1CC[C@H]2[C@@H]3CCC4=CC(=O)CC[C@]4(C)[C@H]3CC[C@]12C [[^3H]-progesterone],Kd,PGRMC1 [1],35 nM
COc1cc2c(cc1OC)CN(CCCCn1c(=O)n(C)c3ccccc31)CC2 [CM398],protection of [^125I]-IAF photolabeling of the S2R,S2R [2]; 1 and 10 μM,selectively blocked the labeling of the S2R
same,Ki,S2R [3],0.43 nM
same,Ki,S1R [4],560 nM
O=c1oc2cc(N=C=S)ccc2n1CCCCN1CCN(c2ccc(F)cc2)CC1 [CM572],type of S2R ligand,"S2R [5]; ref Nicholson et al., 2015",irreversible selective affinity label for the S2R
"Cc1ccccc1NC(=N)Nc1ccccc1C [[^3H]-DTG, [^3H]-1,3-Di-tolylguanidine]",Bmax,S2R [6]; Control NSC34 cells (expression vector without PGRMC1 gene),2.35 ± 0.5 pmol/mg
same,Bmax,S2R [6]; PGRMC1-HA overexpressing NSC34 cells,2.5 ± 0.08 pmol/mg
CC(C)=CCN1CC[C@]2(C)c3cc(O)ccc3C[C@H]1[C@H]2C [(+)-pentazocine],affinity for the S1R,S1R [7],< 10 nM
same,ligand for PGRMC1,PGRMC1 [8],not a ligand for PGRMC1
same,protection of [^125I]-IAF photolabeling of the S1R (26 kDa band),S1R [9]; 5 μM,protected against [^125I]-IAF photolabeling of the S1R; also recorded: readily protected
"Cc1ccccc1NC(=N)Nc1ccccc1C [DTG, 1,3-di-o-tolylguanidine]",Kd,"S1R [7]; read-out: KD for DTG at the S1R, depending on sources of membranes and assay methods, ref Weber et al., 1986, Quirion et al., 1992, Itzhak and Kassim, 1990, Itzhak, 1987",20 to 80 nM
same,affinity for the S1R,S1R [7],~ 50 nM
same,protection of [^125I]-IAF photolabeling of the S2R,S2R [2]; 20 μM,protected
same,affinity for the S2R,"S2R [5]; ref Hellewell et al., 1994",~ 50 nM
same,protection of photolabeling of PGRMC1 (with WC-21),PGRMC1 [8]; 1 μM,protected the photolabeling of PGRMC1
same,protection of the [^125I]-IAF photolabeled S2R band,S2R [10],protected
same,protection of [^125I]-IAF photolabeling of the S1R,S1R [11],protected
same,Ki,PGRMC1 [12],472000 nM
same,protection of [^125I]-IAF photolabeling of the S1R (26 kDa band),S1R [9]; 20 μM,protected against photolabeling of both the S1R and the S2R
same,protection of [^125I]-IAF photolabeling of the S2R (~18 kDa band),S2R [13],protected against photolabeling of both the S1R and the S2R
CC(=O)[C@H]1CC[C@H]2[C@@H]3CCC4=CC(=O)CC[C@]4(C)[C@H]3CC[C@]12C [progesterone],Ki,S2R (sigma-2 receptor),14200 ± 4900 nM
same,Kd,PGRMC1 [1],35 nM
